What was measured:
[1] = system: mixed cooling water bacterial culture; assay: Control experiments: bromide addition alone in phosphate buffer, plate counts; format: cell-based
Description: In order to make certain that the observed biocidal performance enhancement is not caused by the bromide addition alone, a set of control experiments are conducted. […] The differences among all the plate count results are well within the detection limit. Therefore, the performance improvement seen in Examples 1-3 is not caused by the increased concentration of sodium bromide alone.

[2] = in water; cited from earlier work

SMILES: [Br-].[Na+] [NaBr, sodium bromide]
- Biocidal effect of bromide addition alone ([1]; 50-150 ppm NaBr in phosphate buffer): not biocidal
- Bacterial counts ([1]; 50 ppm NaBr, 0 minutes): 7.3 × 10^5 CFU/ml
- Bacterial counts ([1]; 50 ppm NaBr, 5 minutes): 9.3 × 10^5 CFU/ml
- Bacterial counts ([1]; 50 ppm NaBr, 10 minutes): 7.0 × 10^5 CFU/ml
- Bacterial counts ([1]; 50 ppm NaBr, 60 minutes): 8.0 × 10^5 CFU/ml
- Bacterial counts ([1]; 100 ppm NaBr, 0 minutes): 7.3 × 10^5 CFU/ml
- Bacterial counts ([1]; 100 ppm NaBr, 5 minutes): 11.0 × 10^5 CFU/ml
- Bacterial counts ([1]; 100 ppm NaBr, 10 minutes): 8.2 × 10^5 CFU/ml
- Bacterial counts ([1]; 100 ppm NaBr, 60 minutes): 5.4 × 10^5 CFU/ml
- Bacterial counts ([1]; 150 ppm NaBr, 0 minutes): 7.3 × 10^5 CFU/ml
- Bacterial counts ([1]; 150 ppm NaBr, 5 minutes): 8.4 × 10^5 CFU/ml
- Bacterial counts ([1]; 150 ppm NaBr, 10 minutes): 5.2 × 10^5 CFU/ml
- Bacterial counts ([1]; 150 ppm NaBr, 60 minutes): 8.3 × 10^5 CFU/ml

SMILES: BrBr [elemental liquid bromine, bromine]
- solubility [2]: < 4 g/100 g water

— patent US20060003028A1, “Stable oxidizing bromine composition, method of manufacture and use thereof for biofouling control” (priority 2004, published 2006)
